{"source": "patent US5057325A", "about": "“Method of inhibiting replication of HIV with water-soluble melanins” (Vanderbilt University, priority 1990, dated 1991)", "system": "HIV-1 (HTLV-IIIB)", "type": "cell-based", "details": "at 1-100 μg/ml; in these assays (HTLV-IIIB, HTLV-IIIRF, HIV-2ROD infection of MT-2 cells)", "excerpt": "The activity of the melanins for inhibiting replication of HIV can be confirmed by known assays, including particularly the assay described by Montefiori, et al., J. Clin. Microb., 26:231-235, 1988. That assay utilizes human T-cell lymphotropic virus type I-immortalized MT-2 cells as targets for infection. Cytolysis can be quantitated by vital dye uptake of poly-L-lysine-adhered cells as an endpoint for infection. The MT-cell assay has now been accepted as a standard screening test.\nAntiviral activities of the synthetic water-soluble melanins derived as described in Example I from L-tyrosine, L-dopa, dopamine, serotonin, norepinephrine, L-dopa/glutathione, and L-dopa/ L-cysteine were measured in 96 well microdilution plates as described (Montefiori, et al., J. Clin. Microbiol. 26:231-235, 1988). Briefly, 2-fold serial dilutions of melanins were made in triplicate in a total of 100 ul growth medium (RPMI-1640 containing 12% heat-inactivated fetal bovine serum and 50 ug gentamicin/ml) per well. MT-2 cells (5×10^4) in 100 ul of growth medium were added to each well and incubated for 10 minutes. […] Viral-induced cytopathic effect (CPE) was quantitated 3 days later by vital dye (neutral red) uptake in remaining viable cells. […]", "data": [{"substance": "L-dopa", "values": [{"measurement": "antiviral activity", "value": "no antiviral activity"}]}, {"substance": "L-tyrosine", "values": [{"measurement": "antiviral activity", "value": "no antiviral activity"}]}]}
